{
  "source": "patent US10888569B1",
  "about": "“Methods and compositions for treating cancer” (THE UNIVERSITY OF CHICAGO, priority 2017, dated 2021)",
  "key": {"[1]": {"test_system": "mitochondrial inner membrane genes", "assay": "Real-time quantitative PCR of mitochondrial inner membrane (ETC) genes", "type": "cell-based, human", "conditions": "hemin 20 μM, 48 hours; BM1 and MB436 cells", "method": "(§1) Total RNA from cells and tumor samples was isolated using Trizol (Invitrogen) according to the manufacturer's instructions. Two μg of RNA was adapted for reverse transcriptase PCR (Applied Biosystem) to generate cDNA. Real-time PCR was carried out using LightCycler 96 (Roche) and a Fast Start Essential DNA master mix (2×) reagent. Cq values normalized relative to the expression of endogenous control genes using 2^(−ΔΔCq) were plotted."}, "[2]": {"test_system": "TNBC cells (BM1, MB436, MB468, BT549)", "type": "cell-based, human", "method": "TNBC cell lines stably knocked down with lenti-viral shRNA for BACH1 were constructed and maintained as described previously. Gene expression analysis of cultured cells and isolated tumor tissues used a Reverse transcriptase kit followed by Roche96 cycler for real time mRNA quantification and Lycor imaging for immunoblotting. For in vitro cell viability assay with mitochondrial inhibitors, TNBC cells (2×10^3-5×10^3/well) seeded on 96 well plates overnight with culture media (DMEM with 25 mM Glucose) were treated with inhibitors in fresh culture media (DMEM with 1.25 mM Glucose) for 48 and 72 hours and stained with calcein AM and/or monitored for cellular confluency using an IncuCyte Zoom Live Cell Analysis system. Extracellular flux analyzer was used to assay metabolic phenotypes of BACH1-depleted TNBC cells and TNBC cells that are treated with hemin overnight before assays. For bioinformatics analysis using primary patient data cohort (TCGA), cBioportal and R were used.\nBreast cancer cells (5,000 cells/well) and non-malignant mammary epithelial cells (8,000 cells/well) were plated on 96-well plates to observe growth of cells every 4 hours by phase contrast imaging using an IncuCyte Zoom Live Cell Analysis system (Essen Bioscience). After 24 hours of plating, inhibitors were added and monitored until control cells reached 100% confluent. To determine cell viability, cells were seeded in black walled 96-well plates overnight and treated with inhibitors for 48 hours. Calcein AM (R&D system) in PBS was then added and incubated for 1 hour at 37° C. Fluorescence was determined using a Victor3 plate reader (PerkinElmer) with excitation at 420 nm and emission at 520 nm. The absorbance was used to reflect live cell numbers and was normalized to those in control with vehicles and shown as relative viability (%)."}, "BACH1 [3]": {"target": "T1, BACH1 (Homo sapiens, UniProt O14867)", "T1 sequence (O14867 1-736)": "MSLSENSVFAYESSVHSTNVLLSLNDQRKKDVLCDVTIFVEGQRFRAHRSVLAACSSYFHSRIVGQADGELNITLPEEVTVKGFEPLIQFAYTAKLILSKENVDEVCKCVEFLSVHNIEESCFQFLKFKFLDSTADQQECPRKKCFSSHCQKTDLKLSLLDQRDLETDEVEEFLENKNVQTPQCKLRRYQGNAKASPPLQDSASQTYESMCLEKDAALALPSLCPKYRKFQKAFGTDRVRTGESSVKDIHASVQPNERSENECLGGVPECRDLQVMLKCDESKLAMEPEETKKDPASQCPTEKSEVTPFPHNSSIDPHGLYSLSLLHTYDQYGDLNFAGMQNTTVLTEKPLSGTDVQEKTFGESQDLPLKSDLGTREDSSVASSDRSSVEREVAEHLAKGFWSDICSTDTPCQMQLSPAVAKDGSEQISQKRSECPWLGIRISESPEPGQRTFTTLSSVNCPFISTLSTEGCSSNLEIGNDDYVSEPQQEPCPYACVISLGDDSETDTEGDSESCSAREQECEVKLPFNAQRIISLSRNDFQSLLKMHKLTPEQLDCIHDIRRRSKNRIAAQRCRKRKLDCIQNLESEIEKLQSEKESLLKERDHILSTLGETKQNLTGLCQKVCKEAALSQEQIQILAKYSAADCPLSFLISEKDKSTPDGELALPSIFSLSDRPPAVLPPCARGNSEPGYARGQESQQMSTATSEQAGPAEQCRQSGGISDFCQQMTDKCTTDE", "assay": "Immunoblotting of BACH1 in cell lysates after hemin", "type": "cell-based", "set-up": "Protein blots of BACH1 levels in BM1 and MB436 cells treated with Hemin for 4 or 24 hours; endogenous in cells; host or cells: BM1 (MDA-MB-231 derivative), MDA-MB-436, BT549", "method": "(§2) Whole cell lysates were prepared using RIPA buffer (Sigma) with protease inhibitor cocktails (1:100 ThermoFisher) and phosphatase inhibitors (SimpleStop1, Gold Biotechnology) at 4° C. and quantified using Bradford assays for western blotting using antibodies against BACH1 (sc-271211; Santa Cruz), and alpha-TUBULIN (sc-28199; Santa Cruz). Blots were imaged and processed using a Licor Odyssey Fc, dual-mode imaging system (Licor)."}, "HMOX1": {"test_system": "HMOX1", "assay": "Real-time quantitative PCR of HMOX1", "type": "cell-based, human", "conditions": "hemin 20 μM, 48 hours; BM1 and MB436 cells", "method": "as §1"}, "BACH1 [4]": {"target": "T1, BACH1", "assay": "Immunoblotting of PDX tumor lysates: BACH1", "type": "in vivo, mouse", "set-up": "BACH1 protein blots using tumor lysates from representative mice of different TNBC models; from tissue; host or cells: TNBC patient-derived xenograft tumour in mammary fat pad of SCID-Beige mice", "conditions": "following hemin treatment", "method": "as §2\n(§3) For a patient-derived xenografts (PDX) model, frozen PDX tumors in 0.5 ml of sterile HBSS were prepared in a volume of 10-20 mm^3. In brief, tumor fragments were implanted into the mammary fat pads of 5 weeks old SCID-Beige mice following standard procedures. […] Tumor volume was measured by caliper weekly. Tumor weight was measured at the end of drug treatment. Tumor size was shown as mean+/_s.e.m. with significance (p-value) by paired Student's t-test. All the animals were also monitored regularly for body weights."}, "pPDH (Ser293)": {"test_system": "pPDH (Ser293)", "assay": "Immunoblotting of PDX tumor lysates: pPDH (Ser293)", "type": "in vivo, mouse", "conditions": "following hemin treatment"}, "[5]": {"test_system": "BACH1-enriched TNBC PDX tumor", "assay": "Patient-derived xenograft (PDX) model treated with hemin and metformin", "type": "in vivo, mouse", "conditions": "hemin 50 mg/kg/day i.p. and/or metformin 300 mg/kg/day; SCID-BEIGE mice", "method": "as §3"}},
  "data": [
    {"smiles": "C=CC1=C(C)c2cc3[n-]c(cc4[n-]c(cc5nc(cc1n2)C(C)=C5C=C)c(C)c4CCC(=O)O)c(CCC(=O)O)c3C.[Cl-].[Fe+3]", "note": "[hemin, Chloro[3,7,12,17-tetramethyl-8,13-divinylporphyrin-2,18-dipropanoato(2-)]iron(III)]", "values": [
      {"measurement": "mitochondrial gene expression", "setting": "[1]", "value": "increased"},
      {"measurement": "cytotoxicity / growth inhibition of cultured TNBC cells", "setting": "[2]; 20 μM hemin", "value": "neither cytotoxic nor growth inhibitory"},
      {"measurement": "metformin sensitivity of MB468 cells expressing wild type BACH1 when treated with hemin", "setting": "[2]; MB468 transfected with pCDH-BACH1", "value": "metformin sensitivity was restored"},
      {"measurement": "cytotoxicity / growth inhibition of TNBC cells", "setting": "[2]; hemin 10-80 μM up to 124 hours", "value": "neither cytotoxic nor growth inhibitory"},
      {"measurement": "BACH1 levels", "setting": "BACH1 [3]; 20 μM hemin, cultured TNBC cells", "value": "effective at reducing BACH1 levels"},
      {"measurement": "BACH1 levels", "setting": "BACH1 [3]; hemin 10-80 μM, TNBC cells", "value": "effective at reducing BACH1 levels"},
      {"measurement": "HMOX1 expression", "setting": "HMOX1", "value": "increased"},
      {"measurement": "BACH1 protein expression in PDX tumors", "setting": "BACH1 [4]", "value": "depleted"},
      {"measurement": "pPDH (Ser293) protein expression in PDX tumors", "setting": "pPDH (Ser293)", "value": "depleted"},
      {"measurement": "PDX tumor volume, weight, size compared to controls", "setting": "[5]", "value": "considerable reduction in tumor volumes"}
    ]}
  ]
}
